Measured values taken from patent US10399940B2, “Substituted pyrrolidines and methods of use” (AbbVie S.à.r.l., priority 2016, dated 2019).
Where two headings read alike, the source gives them in different places.

Target: T1, F508delCFTR (Homo sapiens, UniProt P13569, DEL508-508)
T1 construct: expressed in transfected cells; host or cells: CFBE41o- (human lung derived epithelial cell line), doxycycline-inducible expression
Test: Cell Surface Expression-Horse Radish Peroxidase (CSE-HRP) assay
Type: cell-based
Settings: CFBE41o-F508delCFTR-HRP cells; for Maximum % activity (with co-corrector): with co-corrector (2 μM); for Maximum % activity (with co-corrector) / Maximum % activity (without co-corrector): normalized to on-plate positive control, highest concentration 20 μM
How it was run: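 CFBE41o- cells expressed F508delCFTR with HRP in the fourth exofacial loop, induced by 0.5 μg/mL doxycycline for 72 h at 37 °C. Compounds alone or with 2 μM co-corrector ran 18–24 h at 33 °C, 8-point 3-fold from 20 μM. Washed-cell luminol luminescence was normalized to DMSO and positive control, fitted sigmoidally for EC50 (three plates).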

[1] = test compound without co-corrector, 18-24 hours at 33° C., read-out: EC50 (without co-corrector)
[2] = with co-corrector (2 μM of 3-[(2R,4R)-4-({[1-(2,2-difluoro-1,3-benzodioxol-5-yl)cyclopropyl]carbonyl}amino)-7-methoxy-3,4-dihydro-2H-chromen-2-yl]benzoic acid), read-out: EC50 (with co-corrector)

T1 sequence (P13569 with tags, fused parts or gaps DEL508-508): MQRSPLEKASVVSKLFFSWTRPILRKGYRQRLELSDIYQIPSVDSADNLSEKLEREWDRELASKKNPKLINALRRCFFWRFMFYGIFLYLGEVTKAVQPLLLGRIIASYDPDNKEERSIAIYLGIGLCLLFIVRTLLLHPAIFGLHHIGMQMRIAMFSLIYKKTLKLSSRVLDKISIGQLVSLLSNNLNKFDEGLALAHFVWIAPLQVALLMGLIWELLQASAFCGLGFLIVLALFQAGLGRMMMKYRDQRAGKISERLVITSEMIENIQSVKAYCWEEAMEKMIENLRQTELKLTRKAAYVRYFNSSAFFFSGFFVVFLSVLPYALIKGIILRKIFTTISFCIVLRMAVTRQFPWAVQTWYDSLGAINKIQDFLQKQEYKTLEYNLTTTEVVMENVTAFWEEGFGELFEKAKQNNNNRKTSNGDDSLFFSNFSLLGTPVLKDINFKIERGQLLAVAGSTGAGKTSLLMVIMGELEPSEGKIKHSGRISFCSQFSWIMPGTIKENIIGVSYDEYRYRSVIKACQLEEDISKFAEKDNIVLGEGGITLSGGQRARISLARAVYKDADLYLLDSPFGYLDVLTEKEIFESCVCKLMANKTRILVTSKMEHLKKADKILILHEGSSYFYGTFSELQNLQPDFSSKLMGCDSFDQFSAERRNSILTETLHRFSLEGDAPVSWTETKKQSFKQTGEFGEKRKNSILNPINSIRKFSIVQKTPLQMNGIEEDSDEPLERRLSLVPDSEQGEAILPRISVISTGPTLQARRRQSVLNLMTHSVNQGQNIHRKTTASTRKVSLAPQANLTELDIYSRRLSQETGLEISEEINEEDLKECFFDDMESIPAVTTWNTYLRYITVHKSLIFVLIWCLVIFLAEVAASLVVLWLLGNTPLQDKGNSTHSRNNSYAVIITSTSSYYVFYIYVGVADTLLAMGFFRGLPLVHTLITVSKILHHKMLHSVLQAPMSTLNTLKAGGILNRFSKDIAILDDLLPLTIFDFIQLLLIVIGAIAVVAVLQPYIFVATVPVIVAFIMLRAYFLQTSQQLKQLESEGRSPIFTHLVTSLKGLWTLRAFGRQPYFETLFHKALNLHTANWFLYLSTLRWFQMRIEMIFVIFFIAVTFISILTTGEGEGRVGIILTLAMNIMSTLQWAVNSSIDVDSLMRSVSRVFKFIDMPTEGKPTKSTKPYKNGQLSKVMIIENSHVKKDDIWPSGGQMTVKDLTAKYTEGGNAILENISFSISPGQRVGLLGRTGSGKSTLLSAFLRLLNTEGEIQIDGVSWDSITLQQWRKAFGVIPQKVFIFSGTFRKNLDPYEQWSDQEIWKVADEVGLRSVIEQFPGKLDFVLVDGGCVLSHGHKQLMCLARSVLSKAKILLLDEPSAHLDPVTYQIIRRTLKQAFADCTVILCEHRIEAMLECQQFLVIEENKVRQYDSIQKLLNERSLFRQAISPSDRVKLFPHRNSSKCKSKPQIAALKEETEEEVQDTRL

SMILES | EC50 [1] [µM] | EC50 [2] [µM] | Maximum % activity (with co-corrector) | Maximum % activity (without co-corrector)
COc1ncc(N2CCC(F)(F)C2)cc1CO[C@H]1[C@H](C(C)(C)C)[C@@H](C(=O)O)N(C(=O)OC(C)C)[C@H]1c1ccccc1 [Example 85, (2S,3R,4S,5S)-3-tert-butyl-4-{[5-(3,3-difluoropyrrolidin-1-yl)-2-methoxypyridin-3-yl]methoxy}-5-phenyl-1-{[(propan-2-yl)oxy]carbonyl}pyrrolidine-2-carboxylic acid] | 1 to 10 | 1 to 10 | ++ (≥150 and <350) | + (<100)
COc1ncc(C(F)(F)F)cc1CO[C@H]1[C@H](C(C)(C)C)[C@@H](C(=O)O)N(C(=O)OC(C)C)[C@H]1c1ccccc1Br [Example 86, (2S,3R,4S,5S)-5-(2-bromophenyl)-3-tert-butyl-4-{[2-methoxy-5-(trifluoromethyl)pyridin-3-yl]methoxy}-1-{[(propan-2-yl)oxy]carbonyl}pyrrolidine-2-carboxylic acid] | 1 to 10 | < 1 | +++ (≥350) | ++ (≥100 and <200)
COc1ncc(C(F)(F)F)cc1CO[C@H]1[C@H](C(C)(C)C)[C@@H](C(=O)O)N(C(=O)OC(C)C)[C@H]1c1ccccc1C(C)C [Example 87, (2S,3R,4S,5S)-3-tert-butyl-4-{[2-methoxy-5-(trifluoromethyl)pyridin-3-yl]methoxy}-1-{[(propan-2-yl)oxy]carbonyl}-5-[2-(propan-2-yl)phenyl]pyrrolidine-2-carboxylic acid] | 1 to 10 | 1 to 10 | +++ (≥350) | ++ (≥100 and <200)

The next lines start with the values.

EC50 [1] [µM] | EC50 [2] [µM] | Maximum % activity (with co-corrector) | Maximum % activity (without co-corrector) | SMILES
1 to 10 | < 1 | +++ (≥350) | ++ (≥100 and <200) | COc1ncc(C(F)(F)F)cc1CO[C@H]1[C@H](C(C)(C)C)[C@@H](C(=O)O)N(C(=O)[C@@H]2CCCO2)[C@H]1c1ccccc1 [Example 88, (2S,3R,4S,5S)-3-tert-butyl-4-{[2-methoxy-5-(trifluoromethyl)pyridin-3-yl]methoxy}-1-[(2S)-oxolane-2-carbonyl]-5-phenylpyrrolidine-2-carboxylic acid]
1 to 10 | < 1 | +++ (≥350) | ++ (≥100 and <200) | COc1ncc(C(F)(F)F)cc1CO[C@H]1[C@H](C(C)(C)C)[C@@H](C(=O)O)N(C(=O)[C@@H]2CCCCO2)[C@H]1c1ccccc1 [Example 89, (2S,3R,4S,5S)-3-tert-butyl-4-{[2-methoxy-5-(trifluoromethyl)pyridin-3-yl]methoxy}-1-[(2S)-oxane-2-carbonyl]-5-phenylpyrrolidine-2-carboxylic acid]
1 to 10 | 1 to 10 | +++ (≥350) | + (<100) | C=CCOC(=O)N1[C@H](C(=O)O)[C@@H](C(C)(C)C)[C@H](OCc2cc(C(F)(F)F)cnc2OC)[C@@H]1c1ccccc1 [Example 90, (2S,3R,4S,5S)-3-tert-butyl-4-{[2-methoxy-5-(trifluoromethyl)pyridin-3-yl]methoxy}-5-phenyl-1-{[(prop-2-en-1-yl)oxy]carbonyl}pyrrolidine-2-carboxylic acid]
1 to 10 | 1 to 10 | +++ (≥350) | ++ (≥100 and <200) | COc1ncc(C(F)(F)F)cc1CO[C@H]1[C@H](C(C)(C)C)[C@@H](C(=O)O)N(C(=O)[C@H]2CCCCO2)[C@H]1c1ccccc1 [Example 91, (2S,3R,4S,5S)-3-tert-butyl-4-{[2-methoxy-5-(trifluoromethyl)pyridin-3-yl]methoxy}-1-[(2R)-oxane-2-carbonyl]-5-phenylpyrrolidine-2-carboxylic acid]
